Where two headings read alike, the source gives them in different places.
Target: T1, F508delCFTR (Homo sapiens, UniProt P13569, DEL508-508)
T1 construct: expressed in transfected cells; host or cells: CFBE41o- human lung-derived epithelial cells (CFBE4lo-F508delCFTR-HRP), doxycycline-inducible
Assay: Cell Surface Expression-Horse Radish Peroxidase (CSE-HRP) Assay;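 as to Maximum % activity (with co-corrector): co-corrector and positive control are both the same reference corrector at 2 µM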;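 as to Maximum % activity (without co-corrector): percent of the 2 µM on-plate positive control corrector response above DMSO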
Format: cell-based
Conditions: for Emax / Maximum % activity (with co-corrector): maximum at any tested concentration, normalized to on-plate positive control; for Emax: read-out: Maximum % activity (without co-corrector)

[1] = test compound without co-corrector
[2] = test compound without co-corrector, read-out: EC50 (without co-corrector)
[3] = with co-corrector (2 μM of 3-[(2R,4R)-4-({[1-(2,2-difluoro-1,3-benzodioxol-5-yl)cyclopropyl]carbonyl}amino)-7-methoxy-3,4-dihydro-2H-chromen-2-yl]benzoic acid), read-out: EC50 (with co-corrector)
[4] = CSE-HRP, test compound without co-corrector, read-out: EC50 (without co-corrector)
[5] = CSE-HRP, with co-corrector (2 μM of 3-[(2R,4R)-4-({[1-(2,2-difluoro-1,3-benzodioxol-5-yl)cyclopropyl]carbonyl}amino)-7-methoxy-3,4-dihydro-2H-chromen-2-yl]benzoic acid), read-out: EC50 (with co-corrector)
[6] = CSE-HRP, with co-corrector (2 μM)
[7] = with co-corrector (2 μM of 3-[(2R,4R)-4-({[1-(2,2-difluoro-1,3-benzodioxol-5-yl)cyclopropyl]carbonyl}amino)-7-methoxy-3,4-dihydro-2H-chromen-2-yl]benzoic acid)

T1 sequence (P13569 with tags, fused parts or gaps DEL508-508): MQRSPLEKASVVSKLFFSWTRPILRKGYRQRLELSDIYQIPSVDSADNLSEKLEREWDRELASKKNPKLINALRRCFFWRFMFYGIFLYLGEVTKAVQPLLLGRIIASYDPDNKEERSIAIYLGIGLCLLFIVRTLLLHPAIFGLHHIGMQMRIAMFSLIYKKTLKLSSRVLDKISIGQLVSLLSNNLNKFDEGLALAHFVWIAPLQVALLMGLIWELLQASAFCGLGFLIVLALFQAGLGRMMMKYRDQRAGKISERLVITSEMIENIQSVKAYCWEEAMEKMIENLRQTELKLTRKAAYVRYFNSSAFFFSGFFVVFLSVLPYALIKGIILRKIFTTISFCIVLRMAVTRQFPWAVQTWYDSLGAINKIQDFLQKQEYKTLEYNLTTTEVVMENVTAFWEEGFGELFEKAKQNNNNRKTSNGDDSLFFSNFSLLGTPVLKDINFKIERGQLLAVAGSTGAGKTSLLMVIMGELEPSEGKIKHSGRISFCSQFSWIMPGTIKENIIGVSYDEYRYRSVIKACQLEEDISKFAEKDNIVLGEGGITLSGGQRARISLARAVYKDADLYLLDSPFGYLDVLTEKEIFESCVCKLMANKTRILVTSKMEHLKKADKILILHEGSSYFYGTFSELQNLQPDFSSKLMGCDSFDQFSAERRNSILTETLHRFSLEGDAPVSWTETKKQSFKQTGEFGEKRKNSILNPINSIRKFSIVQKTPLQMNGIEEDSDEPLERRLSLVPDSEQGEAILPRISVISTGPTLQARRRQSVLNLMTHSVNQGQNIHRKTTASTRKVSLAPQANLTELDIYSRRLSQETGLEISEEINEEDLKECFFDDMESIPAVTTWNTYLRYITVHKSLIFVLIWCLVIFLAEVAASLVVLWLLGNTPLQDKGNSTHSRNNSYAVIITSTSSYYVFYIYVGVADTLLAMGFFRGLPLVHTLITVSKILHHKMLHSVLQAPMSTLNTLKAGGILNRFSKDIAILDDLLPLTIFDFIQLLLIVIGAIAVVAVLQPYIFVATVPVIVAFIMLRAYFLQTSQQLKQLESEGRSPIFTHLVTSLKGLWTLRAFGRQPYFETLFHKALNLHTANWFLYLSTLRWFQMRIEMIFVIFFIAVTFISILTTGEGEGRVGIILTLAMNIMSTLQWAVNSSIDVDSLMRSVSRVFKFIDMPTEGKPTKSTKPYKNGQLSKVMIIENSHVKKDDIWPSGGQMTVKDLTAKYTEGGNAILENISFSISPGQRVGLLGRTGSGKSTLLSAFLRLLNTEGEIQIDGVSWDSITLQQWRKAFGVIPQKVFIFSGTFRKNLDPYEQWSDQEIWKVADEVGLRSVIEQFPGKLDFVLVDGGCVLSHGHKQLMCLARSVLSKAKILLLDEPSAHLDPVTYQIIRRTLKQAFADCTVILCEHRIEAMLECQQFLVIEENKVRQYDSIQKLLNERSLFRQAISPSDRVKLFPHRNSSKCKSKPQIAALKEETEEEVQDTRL

Row | Emax [1] [%] | EC50 [2] [nM] | EC50 [3] [nM] | Maximum % activity (with co-corrector) (with co-corrector (2 μM)) | EC50 [4] [nM] | EC50 [5] [nM] | Maximum % activity (with co-corrector) [6] | Emax (CSE-HRP, without co-corrector) [%] | Emax (without co-corrector) [%] | Maximum % activity (with co-corrector) [7] | SMILES
1 | < 100 | 1000 to 10000 | 1000 to 10000 | ++ (≥150 and <350) | – | – | – | – | – | – | COc1cc(C(F)(F)F)ccc1CN[C@@H]1[C@@H](C(C)(C)C)[C@H](C(=O)O)N(C(=O)C2CCC3(CC2)CC3)[C@@H]1c1ccccc1 (racemic) [III-105]
2 | – | – | – | – | 1000 to 10000 | < 1000 | +++ (≥350) | > 200 | – | – | COc1ccc(C(C)C)cc1CN[C@H]1[C@H](C(C)(C)C)[C@@H](C(=O)O)N(C(=O)C2CCCCC2)[C@H]1c1ccccc1 [II-168]
3 | > 200 | 1000 to 10000 | < 1000 | – | – | – | – | – | – | +++ (≥350) | COc1ccc(C(C)(C)C)cc1CN[C@H]1[C@H](C(C)(C)C)[C@@H](C(=O)O)N(C(=O)c2cnn(-c3ccccc3)c2C)[C@H]1c1ccccc1 [II-361]
4 | < 100 | < 1000 | – | – | – | – | – | – | – | ++ (≥150 and <350) | COc1nc(C(C)(C)C)ccc1CN[C@H]1[C@H](C(C)(C)C)[C@@H](C(=O)O)N(C(=O)C2Cc3ccccc3O2)[C@H]1c1ccccc1 (single isomer, unassigned) [II-430]
5 | < 100 | 1000 to 10000 | 1000 to 10000 | – | – | – | – | – | – | +++ (≥350) | COc1ncc(-c2cccnc2)cc1CN[C@H]1[C@H](C(C)(C)C)[C@@H](C(=O)O)N(C(=O)C2CCCCC2)[C@H]1c1ccccc1 [II-345]
6 | – | – | – | – | 1000 to 10000 | 1000 to 10000 | +++ (≥350) | > 200 | – | – | COc1cc(Cl)ccc1CN[C@H]1[C@H](C(C)(C)C)[C@@H](C(=O)O)N(C(=O)[C@H](OC)c2ccccc2)[C@H]1c1ccccc1 (relative stereo) [II-54]
7 | 100 to 200 | < 1000 | < 1000 | – | – | – | – | – | – | +++ (≥350) | COc1ncc(-c2ccc(F)cc2C)cc1CN[C@H]1[C@H](C(C)(C)C)[C@@H](C(=O)O)N(C(=O)C2CCCCC2)[C@H]1c1ccccc1 [II-343]
8 | – | – | – | – | 1000 to 10000 | 1000 to 10000 | +++ (≥350) | 100 to 200 | – | – | COc1ccc(Cl)cc1CN[C@@H]1[C@@H](C2CC2)[C@H](C(=O)O)N(C(=O)C2CCCCC2)[C@@H]1c1ccccc1 (racemic) [II-12]
9 | < 100 | > 10000 | 1000 to 10000 | – | – | – | – | – | – | ++ (≥150 and <350) | CC(C)(C)[C@@H]1[C@@H](NCc2cccc(OC3CCOCC3)n2)[C@@H](c2ccccc2)N(C(=O)C2CCCCC2)[C@H]1C(=O)O (racemic) [III-10]
10 | > 200 | < 1000 | < 1000 | – | – | – | – | – | – | +++ (≥350) | COc1ncc(-c2ccccc2C)cc1CN[C@H]1[C@H](C(C)(C)C)[C@@H](C(=O)O)N(C(=O)C2CCCCC2)[C@H]1c1ccccc1 [II-342]
11 | 100 to 200 | 1000 to 10000 | 1000 to 10000 | – | – | – | – | – | – | +++ (≥350) | COc1cccc(OC)c1CN[C@H]1[C@H](C(C)(C)C)[C@@H](C(=O)O)N(C(=O)C2CCCCC2)[C@H]1c1ccccc1 [II-407]
12 | – | – | – | – | 1000 to 10000 | < 1000 | +++ (≥350) | > 200 | – | – | COc1ccc(C(C)(C)C)cc1CN[C@H]1[C@H](C(C)(C)C)[C@@H](C(=O)O)N(C(=O)CC2CC(=O)c3ccccc32)[C@H]1c1ccccc1 (some centres unmarked) [II-217]

The next lines start with the compound.

Row | SMILES | Emax [1] [%] | EC50 [2] [nM] | EC50 [3] [nM] | Maximum % activity (with co-corrector) (with co-corrector (2 μM)) | EC50 [4] [nM] | EC50 [5] [nM] | Maximum % activity (with co-corrector) [6] | Emax (CSE-HRP, without co-corrector) [%] | Emax (without co-corrector) [%] | Maximum % activity (with co-corrector) [7]
13 | COc1nc(C(C)(C)C)ccc1CN[C@H]1[C@H](C(C)(C)C)[C@@H](C(=O)O)N(C(=O)OC(C)C)[C@H]1c1ccccc1 [Example I-194] | – | 1000 to 10000 | 1000 to 10000 | +++ (≥350) | – | – | – | – | > 200 | –
14 | COc1ccc(C(F)(F)F)cc1CN[C@H]1[C@H](C(C)(C)C)[C@@H](C(=O)O)N(C(=O)C2CCCC(F)(F)C2)[C@H]1c1cccnc1OC (relative stereo) [Example I-256] | – | – | – | – | 1000 to 10000 | < 1000 | +++ (≥350) | > 200 | – | –
15 | COc1ccc(C(C)(C)C)cc1CN[C@H]1[C@H](C(C)(C)C)[C@@H](C(=O)O)N(C(=O)C2CCC2)[C@H]1c1ccccc1C(F)(F)F [Example I-277] | – | – | – | – | 1000 to 10000 | 1000 to 10000 | +++ (≥350) | 100 to 200 | – | –
16 | COc1ncc(C2CCC2)cc1CN[C@H]1[C@H](C(C)(C)C)[C@@H](C(=O)O)N(C(=O)C2CCCCC2)[C@H]1c1ccccc1C(C)C [Example 117, (2S,3S,4S,5S)-3-tert-butyl-4-{[(5-cyclobutyl-2-methoxypyridin-3-yl)methyl]amino}-1-(cyclohexanecarbonyl)-5-[2-(propan-2-yl)phenyl]pyrrolidine-2-carboxylic acid] | – | < 1000 | < 1000 | +++ (≥350) | – | – | – | – | > 200 | –
17 | COc1ncc(C2CCCC2)cc1CN[C@H]1[C@H](C(C)(C)C)[C@@H](C(=O)O)N(C(=O)C2CCCCC2)[C@H]1c1ccccc1 [Example I-73] | – | < 1000 | < 1000 | +++ (≥350) | – | – | – | – | > 200 | –
18 | COc1ccc(C2(C(F)(F)F)CC2)cc1CN[C@H]1[C@H](C(C)(C)C)[C@@H](C(=O)O)N(C(=O)C2CCCCC2)[C@H]1c1ccccc1 [Example 33, (2S,3S,4S,5S)-3-tert-butyl-1-(cyclohexanecarbonyl)-4-[({2-methoxy-5-[1-(trifluoromethyl)cyclopropyl]phenyl}methyl)amino]-5-phenylpyrrolidine-2-carboxylic acid] | – | 1000 to 10000 | < 1000 | +++ (≥350) | – | – | – | – | > 200 | –
19 | COc1ccc(C(C)(C)C)cc1CN[C@H]1[C@H](C(C)(C)C)[C@@H](C(=O)O)N(C(=O)C(OC)C2CC2)[C@H]1c1ccccc1 (single isomer, unassigned) [Example I-96] | – | 1000 to 10000 | – | +++ (≥350) | – | – | – | – | – | –
20 | COc1ccc(C(C)(C)C)cc1CN[C@H]1[C@H](C(C)(C)C)[C@@H](C(=O)O)N(C(=O)C2CCc3ccccc3O2)[C@H]1c1ccccc1 (single isomer, unassigned) [Example I-83] | – | 1000 to 10000 | 1000 to 10000 | +++ (≥350) | – | – | – | – | 100 to 200 | –
21 | COc1ccc(SC(F)(F)F)cc1CN[C@H]1[C@H](C(C)(C)C)[C@@H](C(=O)O)N(C(=O)C2CCCCC2)[C@H]1c1ccccc1 [Example I-184] | – | 1000 to 10000 | < 1000 | +++ (≥350) | – | – | – | – | 100 to 200 | –
22 | COc1ncc(C2CCC2)cc1CN[C@H]1[C@H](C(C)(C)C)[C@@H](C(=O)O)N(C(=O)[C@@H]2CCCCO2)[C@H]1c1ccccc1C(C)C [Example 73, (2S,3S,4S,5S)-3-tert-butyl-4-{[(5-cyclobutyl-2-methoxypyridin-3-yl)methyl]amino}-1-[(2S)-oxane-2-carbonyl]-5-[2-(propan-2-yl)phenyl]pyrrolidine-2-carboxylic acid] | – | < 1000 | < 1000 | +++ (≥350) | – | – | – | – | > 200 | –
23 | COc1ccc(C2=CCOCC2)cc1CN[C@H]1[C@H](C(C)(C)C)[C@@H](C(=O)O)N(C(=O)C2CCCCC2)[C@H]1c1ccccc1 [Example I-129] | – | 1000 to 10000 | 1000 to 10000 | +++ (≥350) | – | – | – | – | 100 to 200 | –

Reference: patent US20180099931A1 (AbbVie S.à.r.l., priority 2016, published 2018)
